≈ marks a conversion by molar mass, not a printed value. Values belong to the compound of their own block, whether it stands above or below them.
What was measured:
Human alphaherpesvirus 2 = assay: Antiviral activity against HSV2 clinical isolate; format: functional
LoVo = assay: Cytotoxicity against human LoVo cells; format: functional, cell-based

IC90 (Human alphaherpesvirus 2): 2.5 µg/mL (≈ 9.36 µM)
SMILES: Cn1c2c(Cl)c(Cl)ccc2c2cc[nH]c(=O)c21 [BAUERINE C]
IC50 (LoVo): 0.03 µg/mL (≈ 0.112 µM)

SMILES: Cn1c2cnccc2c2ccc(Cl)c(Cl)c21 [BAUERINE B]
IC90 (Human alphaherpesvirus 2): 3 µg/mL (≈ 11.9 µM)
IC50 (LoVo): 5 µg/mL (≈ 19.9 µM)

SMILES: Cn1c2cnccc2c2ccc(Cl)cc21 [BAUERINE A]
IC90 (Human alphaherpesvirus 2): 2 µg/mL (≈ 9.23 µM)
IC50 (LoVo): 3 µg/mL (≈ 13.8 µM)

— ChEMBL document CHEMBL1149053, “beta-Carbolines from the blue-green alga Dichothrix baueriana” (J Nat Prod, 1994)
